These results are taken from ChEMBL document CHEMBL3526076, “Species-dependent and receptor-selective action of bilobalide on the function of constitutive androstane receptor and pregnane X receptor” (Drug Metab Dispos, 2012).

The structures appear in SMILES notation.

Data set [1] addresses T1, Nuclear receptor subfamily 1 group I member 2 (Homo sapiens, UniProt O75469).
T1 sequence (O75469 whole entry): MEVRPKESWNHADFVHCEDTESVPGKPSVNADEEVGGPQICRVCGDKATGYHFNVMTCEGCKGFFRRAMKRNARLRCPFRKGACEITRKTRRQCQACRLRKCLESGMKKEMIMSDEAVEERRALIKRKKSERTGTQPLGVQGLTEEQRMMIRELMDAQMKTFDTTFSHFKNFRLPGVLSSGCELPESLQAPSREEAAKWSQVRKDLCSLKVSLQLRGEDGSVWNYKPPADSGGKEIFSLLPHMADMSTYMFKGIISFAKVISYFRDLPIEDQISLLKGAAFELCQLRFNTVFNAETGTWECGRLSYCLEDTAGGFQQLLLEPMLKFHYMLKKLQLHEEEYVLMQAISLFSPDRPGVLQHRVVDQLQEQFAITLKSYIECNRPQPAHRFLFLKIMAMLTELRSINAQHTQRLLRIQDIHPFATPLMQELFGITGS
Nature of the data set: Activation of human PXR expressed in human HepG2 cells coexpressing CYP3A4 at 0.1 to 100 uM after 24 hrs by dual luciferase reporter gene assay. The class given is ADME, cell-based. To be noted: hepg2, 24 h.

Data set [2] relates to PXR mRNA. The data set can be described thus: Effect on PXR mRNA expression in rat hepatocytes at 30 uM by RT-PCR analysis relative to control. The class given is ADME, cell-based, Hepatocyte. To be noted: read-out: FC.
Data set [3] deals with PXR mRNA. Nature of the data set: Effect on PXR mRNA expression in rat hepatocytes at 10 uM by RT-PCR analysis relative to control. The class given is ADME, cell-based, Hepatocyte. The conditions noted are these: read-out: FC.
For data set [4], the system named is PXR mRNA. Nature of the data set: Effect on PXR mRNA expression in human hepatocytes at 25 uM by RT-PCR analysis relative to control. The class given is ADME, cell-based, Hepatocyte. To be noted: read-out: FC.
For data set [5], the system named is CAR mRNA. The data set can be described thus: Effect on CAR mRNA expression in rat hepatocytes at 1 uM by RT-PCR analysis relative to control. In kind it is ADME, cell-based, Hepatocyte. The conditions noted are these: read-out: FC.
For data set [6], the system named is CAR mRNA. Nature of the data set: Effect on CAR mRNA expression in rat hepatocytes at 30 uM by RT-PCR analysis relative to control. In kind it is ADME, cell-based, Hepatocyte. The conditions noted are these: read-out: FC.
In data set [7] the test system is HepG2. The data set can be described thus: Cytotoxicity against human HepG2 cells at 1 to 100 uM after 24 hrs by lactate dehydrogenase assay. The class given is cell-based. To be noted: hepg2, 24 h.
Data set [8] addresses T2, Nuclear receptor subfamily 1 group I member 3 (Homo sapiens, UniProt Q14994).
T2 sequence (Q14994 whole entry): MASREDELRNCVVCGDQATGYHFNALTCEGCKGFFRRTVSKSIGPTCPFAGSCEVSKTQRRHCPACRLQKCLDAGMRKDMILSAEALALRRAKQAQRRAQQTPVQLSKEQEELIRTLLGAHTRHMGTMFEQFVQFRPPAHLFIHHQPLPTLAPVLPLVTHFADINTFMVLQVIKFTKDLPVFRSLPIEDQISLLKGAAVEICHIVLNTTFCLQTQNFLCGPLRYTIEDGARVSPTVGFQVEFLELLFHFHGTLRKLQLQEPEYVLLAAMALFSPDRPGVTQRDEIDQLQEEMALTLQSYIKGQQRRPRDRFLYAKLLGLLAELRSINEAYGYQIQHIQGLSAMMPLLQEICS
The data set can be described thus: Antagonist activity at human CAR expressed in human HepG2 cells coexpressing CYP2B6 assessed as inhibition of CITCO-induced receptor activation up to 100 uM after 24 hrs by dual luciferase reporter gene assay. The class given is ADME, cell-based. The conditions noted are these: hepg2, 24 h. In general terms: In a reporter assay the amount or activity of a reporter protein is the signal.

For data set [9], the target named is T2, Nuclear receptor subfamily 1 group I member 3. The data set can be described thus: Activation of CAR in human Hu1108 hepatocytes assessed as increase in CYP2B6-mediated bupropion hydroxylation at 10 to 50 uM after 24 hrs by LC-MS analysis. In kind it is ADME, cell-based, Hepatocyte.
The test system of data set [10] is CAR mRNA. The data set can be described thus: Effect on CAR mRNA expression in human hepatocytes at 10 uM by RT-PCR analysis relative to control. The class given is ADME, cell-based, Hepatocyte. To be noted: read-out: FC.

As for `CC(C)(C)[C@]1(O)C[C@@H]2OC(=O)C[C@@]23C(=O)O[C@@H]2OC(=O)[C@H](O)[C@]213`, the Activity result in data set [1] is “Not Active”; in data set [7], “Non-toxic”; in data set [9], “Not Active”. Besides, the fold induction at 30 µM in data set [2] was determined as 0.8; in data set [6], 1. Also, the fold induction at 10 µM in [3] and in data set [10] was 1.4 each time. In addition, in data set [4], the fold induction at 25 µM came to 1.2. In addition, the fold induction at 1 µM in data set [5] came to 1.3. In addition, the “inhibition (INH)” value in data set [8] was “Not Active”.
